Data reported in patent publication US8575158B2, “1-phenyl-substituted heterocyclyl derivatives and their use as prostaglandin D2 receptor modulators” (Actelion Pharmaceuticals Ltd., priority 2010, dated 2013).
pIC50: −log10 of the molar value.

Each molecule was assayed against T1, hCRTH2 receptor (Homo sapiens, UniProt Q9Y5Y4) (assay: Radioligand displacement assay (3H-PGD2) on hCRTH2 receptor membranes). Conditions: antagonistic activity, 3H-PGD2 radioligand displacement, HEK293-hCRTH2 membranes.
T1 construct: expressed in transfected cells; host or cells: HEK293
T1 sequence (Q9Y5Y4 1-395): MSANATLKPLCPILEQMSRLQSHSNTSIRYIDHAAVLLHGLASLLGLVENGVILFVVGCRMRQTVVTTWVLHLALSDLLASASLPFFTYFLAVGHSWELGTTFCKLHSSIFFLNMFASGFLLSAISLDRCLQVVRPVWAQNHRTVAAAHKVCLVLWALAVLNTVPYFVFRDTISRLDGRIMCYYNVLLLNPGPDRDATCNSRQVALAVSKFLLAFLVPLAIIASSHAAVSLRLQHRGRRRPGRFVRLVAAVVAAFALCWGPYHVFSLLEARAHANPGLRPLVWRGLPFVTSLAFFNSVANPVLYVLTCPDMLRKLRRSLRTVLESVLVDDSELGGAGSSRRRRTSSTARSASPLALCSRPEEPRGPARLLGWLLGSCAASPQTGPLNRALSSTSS
Assay type: binding

Row | pIC50 | Compound
1 | 7.15 | O=C(O)COc1ccc(Cl)cc1C1c2ccccc2CCN1C(=O)COc1cccc(Cl)c1 (racemic) [Example 413]
2 | 8.50 | Cc1cc(COC(=O)N2CCc3cc(F)ccc3[C@H]2c2cc(Cl)ccc2OCC(=O)O)n(C)n1 [Example 338, (S)-1-(2-Carboxymethoxy-5-chloro-phenyl)-6-fluoro-3,4-dihydro-1H-isoquinoline-2-carboxylic acid 2,5-dimethyl-2H-pyrazol-3-ylmethyl ester]
3 | 7.49 | Cc1nn(CCC(=O)N2CCc3cc(F)ccc3[C@H]2c2cc(Cl)ccc2OCC(=O)O)c2ccccc12 [Example 397, (4-Chloro-2-{(S)-6-fluoro-2-[3-(3-methyl-indazol-1-yl)-propionyl]-1,2,3,4-tetrahydro-isoquinolin-1-yl}-phenoxy)-acetic acid]
4 | 6.72 | O=C(O)COc1ccc(Cl)cc1C1c2ccccc2CN1C(=O)CCc1cccnc1 (racemic) [Example 505]
5 | 7.87 | O=C(O)COc1ccc(Cl)cc1C1c2ccccc2CN1C(=O)C1CC1c1ccccc1F (stereo not drawn) [Example 525, (4-Chloro-2-{2-trans-[2-(2-fluoro-phenyl)-cyclopropanecarbonyl]-2,3-dihydro-1H-isoindol-1-yl}-phenoxy)-acetic acid]
6 | 7.39 | Cc1ccc(OCC(=O)N2CCc3cc(F)ccc3C2c2cc(Cl)ccc2OCC(=O)O)c(C)n1 (racemic) [Example 432]
7 | 6.70 | Cc1ccc(CCC(=O)N2CCc3ccccc3C2c2cc(Cl)ccc2OCC(=O)O)c(C)n1 (racemic) [Example 455]
8 | 6.76 | Cc1cc2ccccc2n1CCC(=O)N1CCc2ccccc2C1c1cc(Cl)ccc1OCC(=O)O (racemic) [Example 446]
9 | 8.12 | O=C(O)COc1ccc(Cl)cc1[C@@H]1c2ccc(F)cc2CCN1C(=O)OCc1cnccn1 [Example 332, (S)-1-(2-Carboxymethoxy-5-chloro-phenyl)-6-fluoro-3,4-dihydro-1H-isoquinoline-2-carboxylic acid pyrazin-2-ylmethyl ester]
10 | 7.61 | O=C(O)COc1ccc(Cl)cc1C1c2ccccc2CCN1C(=O)CCn1ccc2cccc(Cl)c21 (racemic) [Example 380]
11 | 7.46 | O=C(O)COc1ccc(Cl)cc1C1c2ccccc2CCN1C(=O)COc1ccc(F)cc1 (racemic) [Example 407]
12 | 6.80 | COc1ccc2c(ccn2CCC(=O)N2CCc3ccccc3C2c2cc(Cl)ccc2OCC(=O)O)c1 (racemic) [Example 459]
13 | 8.11 | O=C(O)COc1ccc(Cl)cc1[C@@H]1c2ccc(F)cc2CCN1C(=O)OCc1cccc(F)c1F [Example 354, (S)-1-(2-Carboxymethoxy-5-chloro-phenyl)-6-fluoro-3,4-dihydro-1H-isoquinoline-2-carboxylic acid 2,3-difluoro-benzyl ester]
14 | 7.65 | O=C(O)COc1ccc(Cl)cc1C1c2ccccc2CCN1C(=O)NCCc1ccccc1 (racemic) [Example 493]
15 | 8.63 | Cc1cc(COC(=O)N2CCc3c(ccc(F)c3F)[C@H]2c2cc(Cl)ccc2OCC(=O)O)n(C)n1 [Example 313, (S)-1-(2-Carboxymethoxy-5-chloro-phenyl)-5,6-difluoro-3,4-dihydro-1H-isoquinoline-2-carboxylic acid 2,5-dimethyl-2H-pyrazol-3-ylmethyl ester]
16 | 8.50 | O=C(O)COc1ccc(Cl)cc1[C@@H]1c2ccccc2CCN1C(=O)OCCc1ccccc1 [Example 285, (S)-1-(2-Carboxymethoxy-5-chloro-phenyl)-3,4-dihydro-1H-isoquinoline-2-carboxylic acid phenethyl ester]
17 | 9.32 | Cn1cncc1COC(=O)N1CCc2ccccc2[C@H]1c1cc(Cl)ccc1OCC(=O)O [Example 290, (S)-1-(2-Carboxymethoxy-5-chloro-phenyl)-3,4-dihydro-1H-isoquinoline-2-carboxylic acid 3-methyl-3H-imidazol-4-ylmethyl ester]
18 | 7.27 | CC(C)[C@@H]1C[C@H]1C(=O)N1CCc2ccccc2[C@H]1c1cc(Cl)ccc1OCC(=O)O (single isomer, unassigned) [Example 465]

Same assay, conditions: antagonistic activity; 3H-PGD2 displacement on HEK293-hCRTH2 membrane fragments

Row | pIC50 | Compound
19 | 6.07 | O=C(O)COc1ccc(F)cc1C1c2ccccc2CCN1C(=O)Cn1ccc2ccccc21 (racemic) [Example 61, (±)-{4-Fluoro-2-[2-(2-indol-1-yl-acetyl)-1,2,3,4-tetrahydro-isoquinolin-1-yl]-phenoxy}-acetic acid]
20 | 8.12 | O=C(O)COc1ccc(Cl)cc1C1c2ccccc2CCN1C(=O)CCOc1ccc(F)cc1 (racemic) [Example 102, (±)-(4-Chloro-2-{2-[3-(4-fluoro-phenoxy)-propionyl]-1,2,3,4-tetrahydro-isoquinolin-1-yl}-phenoxy)-acetic acid]
21 | 7.21 | O=C(O)COc1ccc(F)cc1C1c2ccccc2CCN1C(=O)CCN1CCc2ccccc21 (racemic) [Example 146, (±)-{2-[2-(3-2,3-Dihydro-indol-1-yl-propionyl)-1,2,3,4-tetrahydro-isoquinolin-1-yl]-4-fluoro-phenoxy}-acetic acid]
22 | 8.24 | O=C(O)COc1ccc(Cl)cc1[C@@H]1c2ccccc2CCN1C(=O)OCc1ccccc1Cl [Example 174, (S)-1-(2-Carboxymethoxy-5-chloro-phenyl)-3,4-dihydro-1H-isoquinoline-2-carboxylic acid 2-chloro-benzyl ester]
23 | 8.25 | O=C(O)COc1ccc(Cl)cc1C1c2ccccc2CCN1C(=O)OCc1ccccc1C(F)(F)F (racemic) [Example 236]
24 | 8.12 | COc1cccc(OC)c1COC(=O)N1CCc2ccccc2C1c1cc(Cl)ccc1OCC(=O)O (racemic) [Example 244]
25 | 6.54 | O=C(O)COc1ccc(Cl)cc1C1c2ccccc2CCN1C(=O)Cc1ccccc1Cl (racemic) [Example 71, (±)-(4-Chloro-2-{2-[2-(2-chloro-phenyl)-acetyl]-1,2,3,4-tetrahydro-isoquinolin-1-yl}-phenoxy)-acetic acid]
26 | 6.35 | O=C(O)COc1ccc(F)cc1C1c2ccccc2CCN1C(=O)Oc1ccccc1 (racemic) [Example 169]
27 | 8.54 | Cc1ccc(COC(=O)N2CCc3ccccc3C2c2cc(Cl)ccc2OCC(=O)O)c(C)c1 (racemic) [Example 245]
28 | 6.51 | CS(=O)(=O)c1ccc(OCC(=O)O)c(C2c3ccccc3CCN2C(=O)OCc2ccccc2)c1 (racemic) [Example 182]
29 | 7.07 | O=C(O)COc1ccc(F)cc1C1c2ccccc2CCN1C(=O)CCc1cccc(Cl)c1 (racemic) [Example 132, (±)-(2-{2-[3-(3-Chloro-phenyl)-propionyl]-1,2,3,4-tetrahydro-isoquinolin-1-yl}-4-fluoro-phenoxy)-acetic acid]
30 | 7.75 | Cc1cccc(COC(=O)N2CCc3ccccc3C2c2cc(Cl)ccc2OCC(=O)O)c1 (racemic) [Example 239]
31 | 8.31 | COc1cccc(COC(=O)N2CCc3ccccc3C2c2cc(Cl)ccc2OCC(=O)O)c1OC (racemic) [Example 255]
32 | 7.59 | O=C(O)COc1ccc(Cl)cc1C1c2ccccc2CCN1C(=O)CCCc1ccccc1Cl (racemic) [Example 113, (±)-(4-Chloro-2-{2-[4-(2-chloro-phenyl)-butyryl]-1,2,3,4-tetrahydro-isoquinolin-1-yl}-phenoxy)-acetic acid]
33 | 8.40 | COc1cccc(COC(=O)N2CCc3ccccc3C2c2cc(Cl)ccc2OCC(=O)O)c1 (racemic) [Example 237]
